Values joined by “and” are separate entries in the source; they are usually repeats but may differ in a detail not shown here. Equal values may be shown once. Toxic doses and inconclusive results are not listed. Peptide text beside a SMILES is read from it.
Test system: P388 leukemia ip, CD2F1 mice, survival T/C
Assay: NCI In Vivo Anticancer Drug Screen. Data for tumor model P388 Leukemia (intraperitoneal) in CD2F1 (CDF1) mice
Details: endpoint: median survival time, higher = longer survival
In short: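 Mice carrying the transplanted tumor received test compound or vehicle. Survival was recorded in each group, and the value is the treated-group measurement divided by that of the vehicle-treated control group.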

[1] = dose: 50.0 mg/kg/injection, schedule: Q01DX009 (ip), vehicle: saline with Tween-80
[2] = dose: 100.0 mg/kg/injection, schedule: Q01DX009 (ip), vehicle: saline with Tween-80
[3] = dose: 200.0 mg/kg/injection, schedule: Q01DX009 (ip), vehicle: saline with Tween-80
[4] = dose: 100.0 mg/kg/injection, schedule: Q04DX002 (ip), vehicle: saline with Tween-80
[5] = dose: 60.0 mg/kg/injection, schedule: Q01DX005 (ip), vehicle: Klucel (hydroxypropylcellulose) (HPC)
[6] = dose: 120.0 mg/kg/injection, schedule: Q01DX005 (ip), vehicle: Klucel (hydroxypropylcellulose) (HPC)
[7] = dose: 240.0 mg/kg/injection, schedule: Q01DX005 (ip), vehicle: Klucel (hydroxypropylcellulose) (HPC)
[8] = dose: 50.0 mg/kg/injection, schedule: Q01DX005 (ip), vehicle: saline with Tween-80
[9] = dose: 100.0 mg/kg/injection, schedule: Q01DX005 (ip), vehicle: saline with Tween-80
[10] = dose: 200.0 mg/kg/injection, schedule: Q01DX005 (ip), vehicle: saline with Tween-80
[11] = dose: 50.0 mg/kg/injection, schedule: Q01DX009 (ip), vehicle: Klucel (hydroxypropylcellulose) (HPC)
[12] = dose: 100.0 mg/kg/injection, schedule: Q01DX009 (ip), vehicle: Klucel (hydroxypropylcellulose) (HPC)
[13] = dose: 25.0 mg/kg/injection, schedule: Q01DX005 (ip), vehicle: saline with Tween-80
[14] = dose: 25.0 mg/kg/injection, schedule: Q01DX009 (ip), vehicle: Klucel (hydroxypropylcellulose) (HPC)
[15] = dose: 25.0 mg/kg/injection, schedule: Q01DX009 (ip), vehicle: saline with Tween-80

## CCOC1N(c2ccc(Cl)cc2)CN(CCCN(C)C)CC1(C)C (stereo unspecified)
[1]
  T/C: 104 % of control
[2]
  T/C: 104 % of control
[3]
  T/C: 117 % of control

## CSC(=S)c1c(O)ccc2ccccc12
[4]
  T/C: 102 % of control

## COc1cc(NC(C)=O)c(OC)cc1N
dose: 25.0 mg/kg/injection, schedule: Q04DX002 (ip), vehicle: saline
  T/C: 104 % of control
dose: 50.0 mg/kg/injection, schedule: Q04DX002 (ip), vehicle: saline
  T/C: 98 % of control

## C/C(=N\N=C(N)N)c1ccc(-c2ccccc2)cc1
dose: 25.0 mg/kg/injection, schedule: Q04DX002 (ip), vehicle: saline with Tween-80
  T/C: 111 % of control
dose: 50.0 mg/kg/injection, schedule: Q04DX002 (ip), vehicle: saline with Tween-80
  T/C: 109 % of control

## COc1ccc2c(c1OC)CN(C)[C@]13ON(c4ccccc4)[C@H](C[C@]21C)c1cc2c(cc13)OCO2
[4]
  T/C: 98 % of control
dose: 200.0 mg/kg/injection, schedule: Q04DX002 (ip), vehicle: saline with Tween-80
  T/C: 88 % of control
dose: 400.0 mg/kg/injection, schedule: Q04DX002 (ip), vehicle: saline with Tween-80
  T/C: 95 % of control

## CCC(C)C(N)C(=O)NC(Cc1ccc(O)cc1)C(=O)O (stereo not drawn) (H-Ile-Tyr-OH; configuration not given here)
[5]
  T/C: 97 % of control
[6]
  T/C: 96 % of control
[7]
  T/C: 99 % of control

## CNc1ccccc1Sc1cnc(N)nc1C
[5]
  T/C: 94 % of control
[6]
  T/C: 91 % of control
[7]
  T/C: 90 % of control

## CN(C)[C@@H]1C(=O)C(C(N)=O)=C(O)[C@@]2(O)C(=O)C3=C(O)c4c(O)ccc(Cl)c4[C@@](C)(O)[C@H]3C[C@@H]12
dose: 100.0 mg/kg/injection, schedule: Q04DX003 (ip), vehicle: saline
  T/C: 104 % of control
dose: 200.0 mg/kg/injection, schedule: Q04DX003 (ip), vehicle: saline
  T/C: 113 % of control

## Cc1ccccc1N1CCOS(=O)OC(C)C1 (stereo unspecified)
[8]
  T/C: 100 % of control
[9]
  T/C: 104 % of control
[10]
  T/C: 100 % of control

## CC(C)C(Nc1ncnc2nc[nH]c12)C(=O)O (stereo unspecified)
[8]
  T/C: 102 % of control
[9]
  T/C: 102 % of control
[10]
  T/C: 103 % of control

## Cc1nc2c(Br)cc(Br)cc2c(=O)n1CC(=O)NNC(N)=S
[11]
  T/C: 95 % of control
[12]
  T/C: 104 % of control
dose: 200.0 mg/kg/injection, schedule: Q01DX009 (ip), vehicle: Klucel (hydroxypropylcellulose) (HPC)
  T/C: 101 % of control

## C1=Nc2ccccc2/C1=C/c1c[nH]c2ccccc12
[13]
  T/C: 110 % of control
[8]
  T/C: 100 % of control and 103 % of control and 104 % of control
[9]
  T/C: 101 % of control and 103 % of control and 104 % of control
[10]
  T/C: 104 % of control and 118 % of control and 122 % of control
dose: 400.0 mg/kg/injection, schedule: Q01DX005 (ip), vehicle: saline with Tween-80
  T/C: 104 % of control

## Cn1c(=O)c2cc3c(cc2c2ccccc21)OCO3
dose: 25.0 mg/kg/injection, schedule: Q01DX009 (ip), vehicle: other
  T/C: 90 % of control
dose: 50.0 mg/kg/injection, schedule: Q01DX009 (ip), vehicle: other
  T/C: 93 % of control
dose: 100.0 mg/kg/injection, schedule: Q01DX009 (ip), vehicle: other
  T/C: 90 % of control
dose: 200.0 mg/kg/injection, schedule: Q01DX009 (ip), vehicle: other
  T/C: 90 % of control
dose: 400.0 mg/kg/injection, schedule: Q01DX009 (ip), vehicle: other
  T/C: 93 % of control

## C/C(=N\NC(=S)N1CC(C)OC(C)C1)c1ncccn1 (stereo unspecified)
dose: 7.5 mg/kg/injection, schedule: Q01DX005 (ip), vehicle: saline with Tween-80
  T/C: 104 % of control
dose: 15.0 mg/kg/injection, schedule: Q01DX005 (ip), vehicle: saline with Tween-80
  T/C: 98 % of control

## COC(=O)C12CC3(C)OC1(C)OC(=O)C2(Cc1ccccc1)N3C(C)=O (stereo unspecified)
dose: 60.0 mg/kg/injection, schedule: Q01DX005 (ip), vehicle: saline with Tween-80
  T/C: 104 % of control
dose: 120.0 mg/kg/injection, schedule: Q01DX005 (ip), vehicle: saline with Tween-80
  T/C: 104 % of control
dose: 240.0 mg/kg/injection, schedule: Q01DX005 (ip), vehicle: saline with Tween-80
  T/C: 97 % of control

## c1ccc(CSC2=NCCN2)cc1
dose: 12.5 mg/kg/injection, schedule: Q01DX009 (ip), vehicle: saline
  T/C: 93 % of control
dose: 50.0 mg/kg/injection, schedule: Q01DX009 (ip), vehicle: saline
  T/C: 91 % of control

## COc1ccc(C(C)c2cc(N=O)c(OC)cc2O)cc1 (stereo unspecified)
dose: 12.5 mg/kg/injection, schedule: Q01DX005 (ip), vehicle: saline with Tween-80
  T/C: 91 % of control
[13]
  T/C: 94 % of control
[8]
  T/C: 92 % of control and 96 % of control

## NC1CC2CCCCC2CC1(O)c1ccccc1 (stereo unspecified)
dose: 12.5 mg/kg/injection, schedule: Q01DX009 (ip), vehicle: Klucel (hydroxypropylcellulose) (HPC)
  T/C: 98 % of control
[14]
  T/C: 107 % of control
[11]
  T/C: 107 % of control

## CN(C)CCN1c2ccccc2Oc2ccccc21
dose: 50.0 mg/kg/injection, schedule: Q01DX005 (ip), vehicle: saline
  T/C: 104 % of control
dose: 100.0 mg/kg/injection, schedule: Q01DX005 (ip), vehicle: saline
  T/C: 95 % of control

## CCC/C(C)=C(/C#N)CC
[14]
  T/C: 101 % of control
[11]
  T/C: 101 % of control
[12]
  T/C: 101 % of control

## COC(=O)C1=C(C(=O)OC)P2(C)(C)SC(=S)N2C1(c1ccccc1)c1ccccc1
dose: 50.0 mg/kg/injection, schedule: Q01DX005 (ip), vehicle: Klucel (hydroxypropylcellulose) (HPC)
  T/C: 102 % of control
dose: 100.0 mg/kg/injection, schedule: Q01DX005 (ip), vehicle: Klucel (hydroxypropylcellulose) (HPC)
  T/C: 91 % of control

## CC(C)(C=O)CNC(C)(C)C
[15]
  T/C: 110 % of control
[1]
  T/C: 100 % of control and 108 % of control
[2]
  T/C: 103 % of control and 105 % of control
[3]
  T/C: 91 % of control and 103 % of control

## CCCC(CCC)=NNC(=S)SC
dose: 12.5 mg/kg/injection, schedule: Q01DX009 (ip), vehicle: saline with Tween-80
  T/C: 95 % of control
[15]
  T/C: 95 % of control
[1]
  T/C: 106 % of control and 95 % of control

## OCCN(CCO)C(Cc1ccccc1)c1ccccc1 (stereo unspecified)
[8]
  T/C: 110 % of control
[9]
  T/C: 105 % of control
[10]
  T/C: 110 % of control

## C=CCNS(=O)(=O)c1ccccc1
dose: 25.0 mg/kg/injection, schedule: Q04DX003 (ip), vehicle: saline with Tween-80
  T/C: 102 % of control
dose: 50.0 mg/kg/injection, schedule: Q04DX003 (ip), vehicle: saline with Tween-80
  T/C: 107 % of control
dose: 100.0 mg/kg/injection, schedule: Q04DX003 (ip), vehicle: saline with Tween-80
  T/C: 94 % of control
dose: 200.0 mg/kg/injection, schedule: Q04DX003 (ip), vehicle: saline with Tween-80
  T/C: 107 % of control
dose: 400.0 mg/kg/injection, schedule: Q04DX003 (ip), vehicle: saline with Tween-80
  T/C: 107 % of control

## ClCSc1ccccc1C1=NCCCN1
dose: 0.78 mg/kg/injection, schedule: Q01DX005 (ip), vehicle: saline
  T/C: 107 % of control
dose: 1.56 mg/kg/injection, schedule: Q01DX005 (ip), vehicle: saline
  T/C: 107 % of control
dose: 3.12 mg/kg/injection, schedule: Q01DX005 (ip), vehicle: saline
  T/C: 102 % of control

Reference: PubChem BioAssay AID330 (DTP/NCI, 2004)
